# Laboratory results as given in PubChem BioAssay (NCI).
#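 Briefly, cells in 96-well plates were exposed to five compound concentrations for 48 h, and endpoints were estimated by linear interpolation. TGI marks complete inhibition of growth.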
# Columns and labels:
# Assay in all cases: NCI tumour cell line growth inhibition, 48 h
# [1] = system: SR leukemia
# [2] = system: OVCAR-4 ovarian
# [3] = system: RXF 393 renal
# [4] = system: KM12 colon
# [5] = system: A549 NSCLC
# [6] = system: MOLT-4 leukemia
# [7] = system: SF-539 CNS
# [8] = system: NCI-H522 lung
# [9] = system: A498 renal
# [10] = system: SK-OV-3 ovarian
# [11] = system: CAKI-1 renal
# [12] = system: PC-3 prostate
# [13] = system: EKVX NSCLC
# [14] = system: HCT-15 colon
# [15] = system: SK-MEL-28 melanoma
# [16] = system: OVCAR-8 ovarian
# [17] = system: 786-0 renal
# [18] = system: NCI-H460 lung
# [19] = system: SF-268 CNS
# [20] = system: K-562 leukemia
# [21] = system: NCI-H226 lung
# [22] = system: NCI-H23 lung
# [23] = system: M14 melanoma
# [24] = system: HCC-2998 colon
# [25] = system: TK-10 renal
# [26] = system: MCF7 breast
# [27] = system: SNB-75 CNS
# [28] = system: OVCAR-3 ovarian
# [29] = system: ACHN renal
# [30] = system: HT29 colon
# [31] = system: HCT-116 colon
# [32] = system: T-47D breast
# [33] = system: CCRF-CEM leukemia
# [34] = system: UACC-257 melanoma
# [35] = system: SW-620 colon
# [36] = system: MDA-MB-435
# [37] = system: MDA-MB-231 breast
# [38] = system: SF-295 CNS
# [39] = system: BT-549 breast
# [40] = system: DU-145 prostate
# [41] = system: SN12C renal
# [42] = system: HOP-92 NSCLC
# [43] = system: RPMI-8226 leukemia
# [44] = system: HL-60(TB) leukemia
# [45] = system: UACC-62 melanoma
# [46] = system: MDA-N
# [47] = system: U251 CNS
# [48] = system: SK-MEL-2 melanoma
# [49] = system: UO-31 renal
# [50] = system: HS 578T breast
# [51] = system: LOX IMVI melanoma
# [52] = system: HOP-62 NSCLC
# [53] = system: SK-MEL-5 melanoma
# [54] = system: OVCAR-5 ovarian
# [55] = system: NCI/ADR-RES ovarian
# [56] = system: COLO 205 colon
# [57] = system: IGROV1 ovarian
# [58] = system: SNB-19 CNS
smiles,measurement,setting,value
C[C@]12CC[C@@H]3c4cc(C=O)c(OCc5ccccc5)cc4CC[C@H]3[C@@H]1CCC2OCc1ccccc1 (stereo partly specified),TGI,[1],> 100 µM
same,TGI,[2],> 100 µM
same,TGI,[3],> 100 µM
same,TGI,[4],> 100 µM
same,TGI,[5],> 100 µM
same,TGI,[6],> 100 µM
same,TGI,[7],> 100 µM
same,TGI,[8],> 100 µM
same,TGI,[9],> 100 µM
same,TGI,[10],> 100 µM
same,TGI,[11],> 100 µM
same,TGI,[12],> 100 µM
same,TGI,[13],> 100 µM
same,TGI,[14],> 100 µM
same,TGI,[15],> 100 µM
same,TGI,[16],> 100 µM
same,TGI,[17],> 100 µM
same,TGI,[18],> 100 µM
same,TGI,[19],> 100 µM
same,TGI,[20],> 100 µM
same,TGI,[21],> 100 µM
same,TGI,[22],> 100 µM
same,TGI,[23],> 100 µM
same,TGI,[24],> 100 µM
same,TGI,[25],> 100 µM
same,TGI,[26],> 100 µM
same,TGI,[27],> 100 µM
same,TGI,[28],> 100 µM
same,TGI,[29],> 100 µM
same,TGI,[30],> 100 µM
same,TGI,[31],> 100 µM
same,TGI,[32],> 100 µM
same,TGI,[33],> 100 µM
same,TGI,[34],> 100 µM
same,TGI,[35],> 100 µM
same,TGI,[36],> 100 µM
same,TGI,[37],> 100 µM
same,TGI,[38],> 100 µM
same,TGI,[39],> 100 µM
same,TGI,[40],> 100 µM
same,TGI,[41],> 100 µM
same,TGI,[42],> 100 µM
same,TGI,[43],> 100 µM
same,TGI,[44],> 100 µM
same,TGI,[45],> 100 µM
same,TGI,[46],> 100 µM
same,TGI,[47],> 100 µM
same,TGI,[48],> 100 µM
same,TGI,[49],> 100 µM
same,TGI,[50],> 100 µM
same,TGI,[51],> 100 µM
same,TGI,[52],> 100 µM
same,TGI,[53],> 100 µM
same,TGI,[54],> 100 µM
same,TGI,[55],> 100 µM
same,TGI,[56],> 100 µM
O=C1/C(=C/Cc2ccco2)N=C(c2ccccc2)N1c1nc2ccc(Sc3ccccc3)cc2[nH]1,TGI,[1],54.6 µM
same,TGI,[2],86.3 µM
same,TGI,[3],36.1 µM
same,TGI,[4],45.5 µM
same,TGI,[5],> 100 µM
same,TGI,[6],92.9 µM
same,TGI,[7],> 100 µM
same,TGI,[9],30.7 µM
same,TGI,[10],84.6 µM
same,TGI,[11],> 100 µM
same,TGI,[12],53.6 µM
same,TGI,[13],> 100 µM
same,TGI,[14],> 100 µM
same,TGI,[15],85 µM
same,TGI,[16],62.6 µM
same,TGI,[17],38.5 µM
same,TGI,[18],> 100 µM
same,TGI,[57],> 100 µM
same,TGI,[19],58.1 µM
same,TGI,[20],> 100 µM
same,TGI,[23],42.5 µM
same,TGI,[24],40.6 µM
same,TGI,[25],> 100 µM
same,TGI,[26],49.2 µM
same,TGI,[27],75.7 µM
same,TGI,[28],84.8 µM
same,TGI,[29],44.9 µM
same,TGI,[30],73.6 µM
same,TGI,[31],40.7 µM
same,TGI,[32],> 100 µM
same,TGI,[33],44.2 µM
same,TGI,[58],86.7 µM
same,TGI,[34],57.5 µM
same,TGI,[35],> 100 µM
same,TGI,[36],23.5 µM
same,TGI,[37],57 µM
same,TGI,[38],> 100 µM
same,TGI,[39],57.7 µM
same,TGI,[40],70.5 µM
same,TGI,[41],34.9 µM
same,TGI,[42],67.6 µM
same,TGI,[43],> 100 µM
same,TGI,[44],45.4 µM
same,TGI,[45],83.1 µM
same,TGI,[46],25 µM
same,TGI,[47],43.9 µM
same,TGI,[48],34.8 µM
same,TGI,[49],50.6 µM
same,TGI,[50],50.7 µM
same,TGI,[51],43.7 µM
same,TGI,[52],> 100 µM
same,TGI,[53],31.8 µM
same,TGI,[54],96.9 µM
same,TGI,[55],72.4 µM
same,TGI,[56],36 µM
